Columns and labels:
[1] = test system: normal breast epithelial cells (MCF-12A); assay: XTT viability assay, normal breast epithelial cells, 24-hour treatment with isolates; assay type: cell-based; settings: 24 hour incubation, highest dose assessed, FIG. 4
Method: (§1) To calculate doses, the concentrations of the specific components for serving sizes of 15 mg, 30 mg and 60 mg per person per day for Δ7 mesembrenone, mesembrenone and non-alkaloids respectively were expressed as a fraction of total body fluid volume. In an attempt to account for digestive losses, these concentrations were halved, to reach cell-culture “equivalent” doses of 0.5 ug/ml, 1 ug/ml and 2 ug/ml respectively. Following standard laboratory practice, a range of doses around these was assessed. For clarity, only 3 concentrations per component are presented (doses of 10-fold smaller were also tested for ail components, but were not different from lowest doses presented herein and thus omitted).
(§2) Briefly, the procedure itself entailed 24-hour treatment of confluent cell culture samples of normal breast epithelial cells (MCF-12A) and breast epithelial carcinoma cells (MCF-7) with varying doses of the test products. At the end of this period, the mitochondrial viability of cells was assessed using the XTT assay method. Viability was measured and expressed relative to an appropriate control.
Results are illustrated in FIG. 4 of the accompanying drawings. Results are expressed as the percentage of viable cells after a 24 hour incubation with the test substances. […]

[2] = test system: breast epithelial carcinoma cells (MCF-7); assay: XTT viability assay, breast epithelial carcinoma cells, 24-hour treatment with isolates; assay type: cell-based; settings: 24 hour incubation, FIG. 4; for effect on viability of cancer cells: 3 concentrations per component around 0.5, 1 and 2 ug/ml respectively
Method: as §1, §2
Results are illustrated in FIG. 4 of the accompanying drawings. Results are expressed as the percentage of viable cells after a 24 hour incubation with the test substances. Bars are means of repeated experiments (a minimum of 3 repeat experiments in triplicate) and error bars indicate standard deviations from the mean. Asterisk (*) indicate significant reductions in cancer cell viability.

Compound	effect on normal cell survival [1]	effect on viability of cancer cells [2]	anti-cancer effect compared with the other isolates ([2]; Δ7 mesembrenone dosed 50% less than mesembrenone)
COc1ccc(C23CCC(=O)C=C2N(C)CC3)cc1OC (centres unmarked) [Δ7 mesembrenone]	not affecting normal cell survival	clear dose-response effects	most potent anti-cancer effect
COc1ccc([C@@]23C=CC(=O)C[C@@H]2N(C)CC3)cc1OC [mesembrenone]	seemed to limit growth of normal cells to some extent	clear dose-response effects	–

From patent US11173142B2, “Cancer treatment composition” (BOTANICAL RESOURCE HOLDINGS (PROPRIETARY) LIMITED, priority 2015, dated 2021)
